Results taken from patent US20190161499A1, “PESTICIDALLY ACTIVE 1,2,4-TRIAZOLE DERIVATIVES” (SYNGENTA PARTICIPATIONS AG, priority 2015, published 2019).

Tests used:
Type in all cases: in vivo
[1] = tested on: Plutella xylostella (Diamond Back Moth); test: whole plant or invertebrate; conditions: 120 h, application rate 200 ppm, L2 larvae, 5 days after infestation, read-out: effect in at least one of the two categories (mortality or growth inhibition)
Description: Example B2: Plutella xylostella (Diamond Back Moth)
(§1) 24-well microtiter plates with artificial diet were treated with aqueous test solutions prepared from 10,000 ppm DMSO stock solutions by pipetting. After drying, the plates were infested with L2 larvae (10 to 15 per well). The samples were assessed for mortality and growth inhibition in comparison to untreated samples 5 days after infestation.

[2] = tested on: Spodoptera littoralis (Egyptian Cotton Leaf Worm); test: Spodoptera littoralis cotton leaf disc spray test; conditions: foliar, 72 h, application rate 200 ppm, L1 larvae, 3 days after infestation, read-out: control (at least one of mortality, anti-feedant effect, growth inhibition)
Description: Spodoptera littoralis (Egyptian Cotton Leaf Worm)
Cotton leaf discs were placed on agar in 24-well microtiter plates and sprayed with aqueous test solutions prepared from 10,000 ppm DMSO stock solutions. After drying, the leaf discs were infested with five L1 larvae. The samples were assessed for mortality, anti-feedant effect, and growth inhibition in comparison to untreated samples 3 days after infestation. Control of Spodoptera littoralis by a test sample is when at least one of mortality, anti-feedant effect, and growth inhibition is higher than the untreated sample.

[3] = tested on: Diabrotica Balteata (Corn Root Worm); test: whole plant or invertebrate; conditions: 96 h, application rate 200 ppm, L2 larvae, 4 days after infestation, read-out: effect in at least one of the two categories (mortality or growth inhibition)
Description: Example B3: Diabrotica Balteata (Corn Root Worm)
as §1, with “Maize sprouts, placed on an agar layer in 24-well” for “24-well”, “plates” for “plates with artificial diet”, “spraying.” for “pipetting.”, “(6” for “(10”, “10” for “15”, “4” for “5”

[4] = tested on: Diabrotica Balteata (Corn Root Worm); test: Comparison: insecticidal activity against Diabrotica balteata; conditions: 96 h, 4 days after infestation
Description: (§2) Compound B is disclosed in WO2013/063282 as an example on page 114 (Table 4, M is CH(Me), Rx=2-F, Ry=4-Cl) and compound C is disclosed in WO 2013/173218 as example on page 123 (Table 14, M is CH(Me), R4a=2-F, R4b=4-Cl). The activities of compounds B and C to treat different pests are compared with the activities of compound A according to the present invention. The tests are carried out at different concentrations (ppm).
c) Insecticidal Activity Against Diabrotica Balteata (Corn Root Worm):
as §1, with “Maize sprouts, placed on an agar layer in 24-well” for “24-well”, “plates” for “plates with artificial diet”, “spraying.” for “pipetting.”, “(6” for “(10”, “10” for “15”, “4” for “5”

[5] = tested on: Plutella xylostella (Diamond Back Moth); test: Comparison: insecticidal activity against Plutella xylostella; conditions: 120 h, 5 days after infestation
Description: as §2
b) Insecticidal Activity Against Plutella xylostella (Diamond Back Moth):
as §1

[6] = tested on: Spodoptera littoralis (Egyptian Cotton Leaf Worm); test: Comparison: insecticidal activity against Spodoptera littoralis; conditions: 72 h, 3 days after infestation
Description: as §2
a) Insecticidal Activity Against Spodoptera littoralis (Egyptian Cotton Leaf Worm)
Cotton leaf discs were placed onto agar in 24-well microtiter plates and sprayed with aqueous test solutions prepared from 10,000 ppm DMSO stock solutions. After drying the leaf discs were infested with five L1 larvae. The samples were assessed for mortality 3 days after infestation.

Row | SMILES | percent effect (mortality or growth inhibition) at 200 ppm [1] [%] | percent control (mortality, anti-feedant effect or growth inhibition) at 200 ppm [2] [%] | percent effect (mortality or growth inhibition) at 200 ppm [3] [%] | other results
1 | Fc1ccccc1-n1nc(-c2ccc(Cl)cc2)nc1CN1CCC(c2ccon2)CC1 [Example 1.120] | ≥ 80 | ≥ 80 | ≥ 80 | 
2 | Fc1ccc(-c2nc(CN3CCC(c4ncccn4)CC3)n(-c3ccc(F)cc3)n2)cc1 [Example 1.29] | ≥ 80 | ≥ 80 | ≥ 80 | 
3 | Clc1ccc(-c2nc(CN3CCC(c4ncccn4)CC3)n(-c3ccccc3)n2)cc1 [Example 1.61] | ≥ 80 | ≥ 80 | ≥ 80 | 
4 | Fc1cccc(-n2nc(-c3ccc(Cl)cc3)nc2CN2CCC(c3ncccn3)CC2)c1 [Example 1.80] | ≥ 80 | ≥ 80 | ≥ 80 | 
5 | Clc1ccc(-c2nc(CN3CCC(c4ncccn4)CC3)n(-c3ccccn3)n2)cc1 [Example 1.78] | ≥ 80 | ≥ 80 | ≥ 80 | 
6 | Cc1ccccc1-n1nc(-c2ccc(Cl)cc2)nc1CN1CCC(c2ncccn2)CC1 [Example 1.62] | ≥ 80 | ≥ 80 | ≥ 80 | 
7 | CC1(C)CCN(Cc2nc(-c3ccc(Cl)cc3)nn2-c2ccccc2F)CC1 [Example 1.35] | ≥ 80 | ≥ 80 | ≥ 80 | 
8 | CC1CCN(Cc2cn(-c3ccc(Cl)cc3)nc2-c2ccccc2F)CC1 [Compound B] |  |  |  | mortality at 12.5 ppm [4]: 0%; mortality at 50 ppm [4]: 100%; mortality at 200 ppm [4]: 100%; mortality at 12.5 ppm [5]: 0%; mortality at 50 ppm [5]: 0%; mortality at 200 ppm [5]: 0%; mortality at 12.5 ppm [6]: 0%; mortality at 50 ppm [6]: 0%; mortality at 200 ppm [6]: 100%
9 | COc1ccccc1-n1nc(-c2ccc(Cl)cc2)nc1CN1CCC(c2ncccn2)CC1 [Example 1.70] | ≥ 80 | ≥ 80 | ≥ 80 | 
10 | CC1CCN(Cc2nn(-c3ccc(Cl)cc3)nc2-c2ccccc2F)CC1 [Compound C] |  |  |  | mortality at 12.5 ppm [4]: 0%; mortality at 50 ppm [4]: 100%; mortality at 200 ppm [4]: 100%; mortality at 12.5 ppm [5]: 0%; mortality at 50 ppm [5]: 0%; mortality at 200 ppm [5]: 0%; mortality at 12.5 ppm [6]: 0%; mortality at 50 ppm [6]: 0%; mortality at 200 ppm [6]: 50%
11 | COC[C@@H]1CCCN1Cc1nc(-c2ccc(Cl)cc2)nn1-c1ccccc1F [Example 5.28] | ≥ 80 | ≥ 80 | ≥ 80 | 
12 | Fc1ccccc1-n1nc(-c2ccc(Cl)cc2)nc1CN1CCC(c2ccccc2)CC1 [Example 1.43] | ≥ 80 | ≥ 80 | ≥ 80 | 
13 | Cc1c(Cl)cccc1-n1nc(-c2ccc(Cl)cc2)nc1CN1CCC(c2ncccn2)CC1 [Example 1.84] | ≥ 80 | ≥ 80 | ≥ 80 | 
14 | Fc1ccccc1-n1nc(-c2ccc(Cl)cc2)nc1CN1CCC(c2ncccc2Cl)CC1 [Example 1.126] | ≥ 80 | ≥ 80 | ≥ 80 | 
15 | Fc1ccccc1-n1nc(-c2cccc(C(F)(F)F)c2)nc1CN1CCC(c2ncccn2)CC1 [Example 1.38] | ≥ 80 | ≥ 80 | ≥ 80 | 
16 | Fc1ccccc1-n1nc(-c2ccc(Cl)c(Cl)c2)nc1CN1CCC(c2ncccn2)CC1 [Example 1.20] | ≥ 80 | ≥ 80 | ≥ 80 | 
17 | Fc1ccccc1-n1nc(-c2ccc(Cl)cc2)nc1CN1CCC(c2ncccn2)CC1 [Example 1.1, 2-[1-[[5-(4-chlorophenyl)-2-(2-fluorophenyl)-1,2,4-triazol-3-yl]methyl]-4-piperidyl]pyrimidine] | ≥ 80 | ≥ 80 | ≥ 80 | 
18 | Clc1ccc(-c2nc(CN3CCC(c4ncccn4)CC3)n(Cc3ccccc3)n2)cc1 [Example 1.56] | ≥ 80 | ≥ 80 | ≥ 80 | 
19 | Clc1ccc(-c2nc(CN3CCC(c4ncccn4)CC3)n(-c3ccc(Br)cc3)n2)cc1 [Example 1.76] | ≥ 80 | ≥ 80 | ≥ 80 | 
20 | Clc1ccc(-c2nc(CN3CCC(c4ncccn4)CC3)n(-c3ccc(Cl)cc3)n2)cc1 [Example 1.66] | ≥ 80 | ≥ 80 | ≥ 80 | 
21 | Clc1ccc(-c2nc(CN3CCC(c4ncccn4)CC3)n(-c3cccc(Cl)c3Cl)n2)cc1 [Example 1.55] | ≥ 80 | ≥ 80 | ≥ 80 | 
22 | CC1CCN(Cc2nc(-c3ccc(Cl)cc3)nn2-c2ccccc2F)CC1 [A] |  |  |  | mortality at 12.5 ppm [4]: 100%; mortality at 50 ppm [4]: 100%; mortality at 200 ppm [4]: 100%; mortality at 12.5 ppm [5]: 50%; mortality at 50 ppm [5]: 100%; mortality at 200 ppm [5]: 100%; mortality at 12.5 ppm [6]: 100%; mortality at 50 ppm [6]: 100%; mortality at 200 ppm [6]: 100%
23 | Cc1nccc(C2CCN(Cc3nc(-c4ccc(Cl)cc4)nn3-c3ccccc3F)CC2)n1 [Example 1.110] | ≥ 80 | ≥ 80 | ≥ 80 | 
24 | Fc1ccc(-n2nc(-c3ccc(Cl)cc3)nc2CN2CCC(c3ncccn3)CC2)c(F)c1 [Example 1.30] | ≥ 80 | ≥ 80 | ≥ 80 | 
25 | Clc1ccc(-c2nc(CN3CCC(c4ncccn4)CC3)n(-c3ccccc3Cl)n2)cc1 [Example 1.83] | ≥ 80 | ≥ 80 | ≥ 80 | 
26 | Fc1ccccc1-n1nc(-c2ccc(Cl)cn2)nc1CN1CCC(c2ncccn2)CC1 [Example 1.4] | ≥ 80 | ≥ 80 | ≥ 80 | 
27 | Fc1cccc(F)c1-n1nc(-c2ccc(C(F)(F)F)cc2)nc1CN1CCC(c2ncccn2)CC1 [Example 1.21] | ≥ 80 | ≥ 80 | ≥ 80 | 
28 | Fc1ccc(C2CCN(Cc3nc(-c4ccc(Cl)cc4)nn3-c3ccccc3F)CC2)nc1 [Example 1.122] | ≥ 80 | ≥ 80 | ≥ 80 | 
29 | Fc1ccccc1-n1nc(-c2ccc(C(F)(F)F)cc2)nc1CN1CCC(c2ncccn2)CC1 [Example 1.26] | ≥ 80 | ≥ 80 | ≥ 80 | 
